Reference: US20240269305A1, “STING AGONIST SUITABLE AS PAYLOAD OF ANTIBODY DRUG CONJUGATE” (HITGEN INC., priority 2021, published 2024)

Assays:
STING signaling pathway [1] = experiment: IFN-β production in THP1 cells (ELISA); type: cell-based; details: Homo sapiens, read-out: IFN-β EC50
Method: In this experiment, the function of sting agonists was evaluated by detecting the changes of IFN-β and CXCL10 (IP10) cytokines which were produced by the stimulation of the compounds to human peripheral blood mononuclear cell line THP1 cell (Shanghai Cell Bank). On the first day of the experiment, ELISA plates were coated according to the instructions of IFN-β (R&D, #DY814-05) and IP10 (BD, #550926) ELISA detection kits. The compound was dissolved in DMSO as a stock solution, which was diluted with culture medium to a 2× working concentration, and then added to a 96-well plate at 100 μL per well; THP1 cells in the logarithmic growth phase were counted and diluted to a concentration of 2*10^6/mL, which was then added at 100 μL per well to the aforementioned 96-well plate containing the compounds. After mixed, the above cells in the 96-well plate were incubated at 37° C. and 5% CO2 for 18 h. On the second day, the above cell culture supernatant was aspirated at 100 μL per well, and then their OD450 values were determined using the IFN-β and IP10 ELISA detection kits respectively. The obtained data was converted to the concentration of IFN-β and IP10 according to the standard curve, and the EC50 values were calculated using GraphPad 5.0 to fit the dose-effect curve.

STING signaling pathway [2] = experiment: THP1-Blue ISG reporter assay (QUANTI-Blue); type: cell-based, human
Method: (§1) In this experiment, THP1-Blue™ ISG (interferon-stimulated genes) cell line (InvivoGen, catalog number: thp-isg) was used to evaluate the activating of interferon signaling pathway after the treatment by the compounds. THP1-Blue™ ISG cells were cultured using RPMI1640 medium (containing 10% heat-inactivated fetal bovine serum, 100 μg/ml Zeocin™, InvivoGen, catalog number: ant-zn-1). On the first day of the experiment, the compound was dissolved in DMSO as a stock solution, which was then diluted with culture medium to 2× working concentration and then 100 μL per well of the above dilution was added to a 96-well plate; THP1 cells in the logarithmic growth phase were counted and diluted to a concentration of 1*10^6 cells/mL, which was then added at 100 μL per well (1*10^5 cells/well) to the aforementioned 96-well plate containing the compounds. After mixed, the above cells in the 96-well plate were incubated at 37° C. with 5% CO2 for 18 h. On the second day, the above cell culture supernatant was aspirated at 20 μL per well, which was added to a new 96-well plate. And then 180 μL per well of QUANTI-Blue™ solution (InvivoGen, catalog number: rep-qbs1) was added. The above cells in the 96-well plate were incubated at 37° C. for 1 h. OD (620-655 nm) value was read on a Microplate Reader, and the EC50 value was calculated by using GraphPad to fit the dose-effect curve. 50 μL of Celltiter Glo solution (Promega, Cat. No. G756B) was added to the remaining cell culture plates.

[3] = Cytotoxicity in THP1-Blue ISG cells (Celltiter Glo); type: cell-based, human; details: Celltiter Glo luminescence; for CC50 at 18 h: human
Method: as §1

STING signaling pathway [4] = experiment: Cytokine secretion in PBMC (ELISA); type: cell-based; details: 6 h
Method: (§2) The following experiments were performed to determine the activation effect of the compound on the STING signaling pathway in PBMC cells, which mainly using ELISA to detect the secretion of IL-6, TNF-, IFN-, and IFN- in the cell culture supernatant. At the same time, CTG (CellTiter-Glo) was used to detect the survival rate of the cells, and to calculate the half cytotoxic dose of cells CC50.
(§3) The frozen PBMC cells were placed in a 37° C. water bath. After the ice was completely melted, the cells were transferred to 3 ml of RPMI 1640 complete culture medium (containing 10% FBS), and then centrifuged at 1500 rpm for 3 minutes. After removing the supernatant, the cells were re-suspended for counting. 200 μL of 50,000 PBMC cells were added in a 96-well plate, and the compounds to be tested were diluted with different gradient concentrations. After 6 h, 150 μL of the cell supernatant was aspirated, and the concentrations of IL-6, TNF-, IFN-, and IFN- were measured using ELISA kits, and the curves of compound concentration and cytokine release were drawn to calculate the values of EC50. 50 μL of CTG solution was added to the remaining cell culture plate.

[5] = Cytotoxicity in PBMC (CellTiter-Glo); type: cell-based; details: PBMC cells, CTG
Method: as §2, §3

[6] = THP-1, THP1 cells, 18 h incubation, ELISA of culture supernatant
[7] = Homo sapiens, THP1-Blue ISG cells, 18 h incubation, QUANTI-Blue OD 620-655 nm, read-out: EC50
[8] = ELISA of supernatant, read-out: IFN-β EC50
[9] = ELISA of supernatant, read-out: IL-6 EC50
[10] = ELISA of supernatant, read-out: TNF-α EC50
[11] = THP1-Blue ISG cells, 18 h incubation, QUANTI-Blue OD 620-655 nm, read-out: EC50

| SMILES | EC50 (STING signaling pathway [1]; [6]) | EC50 (STING signaling pathway [2]; [7]) | EC50 (STING signaling pathway [4]; [8]) | EC50 (STING signaling pathway [4]; [9]) | EC50 (STING signaling pathway [4]; [10]) | CC50 at 18 h [3] | CC50 at 6 h [5] | further results |
| --- | --- | --- | --- | --- | --- | --- | --- | --- |
| CCc1nc(C)sc1C(=O)Nc1nc2cc(C(N)=O)cc(SC)c2n1C/C=C/Cn1c(NC(=O)c2cc(C)nn2CC)nc2cc(C(N)=O)cc(OCCCN3CCN(C(=O)OCCCC4CCNCC4)CC3)c21 [Example 13] | 0.1 to 1 µM | < 0.1 µM | 0.1 to 1 µM | < 0.1 µM | < 0.1 µM | > 50 µM | > 50 µM | – |
| CCc1nc(C)sc1C(=O)Nc1nc2cc(C(N)=O)cc(OCCCN3CCN(C(=O)OCCCNC(=O)OCc4ccc(NC(=O)[C@H](CCCNC(N)=O)NC(=O)[C@@H](NC(=O)CCCCCN5C(=O)C=CC5=O)C(C)C)cc4)CC3)c2n1C/C=C/Cn1c(NC(=O)c2cc(C)nn2CC)nc2cc(C(N)=O)cc(SC)c21 [Example 40] | – | – | – | < 0.1 µM | < 0.1 µM | – | – | EC50 (STING signaling pathway [2]; [11]): < 0.1 µM; CC50 ([3]; 18 h): > 50 µM |
| CCc1nc(C)sc1C(=O)Nc1nc2cc(C(N)=O)cc(OCCCN3CCN(C(=O)OCCCN4CCNCC4)CC3)c2n1C/C=C/Cn1c(NC(=O)c2cc(C)nn2CC)nc2cc(C(N)=O)cc(SC)c21 [Example 6] | 0.1 to 1 µM | – | – | – | – | – | – | – |
| CCc1nc(C)sc1C(=O)Nc1nc2cc(C(N)=O)cc(OCCCN3CCN(C(=O)OCCCC4CCNCC4)CC3)c2n1C/C=C/Cn1c(NC(=O)c2cc(C)nn2CC)nc2cc(C(N)=O)cc(SC)c21 [Example 8] | – | – | – | – | – | – | – | EC50 (STING signaling pathway [1]; THP-1, 18 h): 0.1 to 1 µM |
| CCc1nc(C)sc1C(=O)Nc1nc2cc(C(N)=O)cc(OCCCN3CCN(C(=O)CCCNC)CC3)c2n1C/C=C/Cn1c(NC(=O)c2cc(C)nn2CC)nc2cc(C(N)=O)cc(SC)c21 [Example 2] | 0.1 to 1 µM | < 0.1 µM | 0.1 to 1 µM | 0.1 to 1 µM | 0.1 to 1 µM | > 50 µM | > 40 µM | – |
| CCc1nc(C)sc1C(=O)Nc1nc2cc(C(N)=O)cc(SC)c2n1C/C=C/Cn1c(NC(=O)c2c(F)c(C)nn2CC)nc2cc(C(N)=O)cc(OCCCN3CCN(C(=O)OCCCC4CCNCC4)CC3)c21 [Example 14] | 0.1 to 1 µM | < 0.1 µM | 0.1 to 1 µM | 0.1 to 1 µM | < 0.1 µM | > 50 µM | > 50 µM | – |
| CCc1nc(C)sc1C(=O)Nc1nc2cc(C(N)=O)cc(OCCCN3CCN(C(=O)CCN)CC3)c2n1C/C=C/Cn1c(NC(=O)c2cc(C)nn2CC)nc2cc(C(N)=O)cc(SC)c21 [Example 1] | 0.1 to 1 µM | < 0.1 µM | 0.1 to 1 µM | 0.1 to 1 µM | 0.1 to 1 µM | > 50 µM | > 25 µM | – |
| CCc1nc(C)sc1C(=O)Nc1nc2cc(C(N)=O)cc(OCCCN3CCN(C(=O)OCCCN)CC3)c2n1C/C=C/Cn1c(NC(=O)c2cc(C)nn2CC)nc2cc(C(N)=O)cc(SC)c21 [Example 10] | – | – | – | – | – | > 50 µM | > 40 µM | EC50 (STING signaling pathway [1]; THP-1, 18 h): 0.1 to 1 µM; EC50 (STING signaling pathway [2]; Homo sapiens, THP1-Blue ISG, 18 h): < 0.1 µM; EC50 (STING signaling pathway [4]; read-out: IFN-β EC50): 0.1 to 1 µM; EC50 (STING signaling pathway [4]; read-out: IL-6 EC50): 0.1 to 1 µM; EC50 (STING signaling pathway [4]; read-out: TNF-α EC50): 0.1 to 1 µM |
| CCc1nc(C)sc1C(=O)Nc1nc2cc(C(N)=O)cc(OCCCN3CCN(CCNC)CC3)c2n1C/C=C/Cn1c(NC(=O)c2cc(C)nn2CC)nc2cc(C(N)=O)cc(SC)c21 [Example 11] | > 1 µM | – | – | – | – | – | – | – |
| CCc1nc(C)sc1C(=O)Nc1nc2cc(C(N)=O)cc(OCCCN3CCN(C(=O)C(C)(C)CCNC(=O)OCCCNC(=O)OCc4ccc(NC(=O)[C@H](CCCNC(N)=O)NC(=O)[C@@H](NC(=O)CCCCCN5C(=O)C=CC5=O)C(C)C)cc4)CC3)c2n1C/C=C/Cn1c(NC(=O)c2cc(C)nn2CC)nc2cc(C(N)=O)cc(SC)c21 [Example 41] | – | – | – | 0.1 to 1 µM | 0.1 to 1 µM | > 50 µM | – | EC50 (STING signaling pathway [2]; [11]): < 0.1 µM |
| CCc1nc(C)sc1C(=O)Nc1nc2cc(C(N)=O)cc(OCCCN3CCN(CCN)CC3)c2n1C/C=C/Cn1c(NC(=O)c2cc(C)nn2CC)nc2cc(C(N)=O)cc(SC)c21 [Example 12] | > 1 µM | – | – | – | – | – | – | – |
| CCc1nc(C)sc1C(=O)Nc1nc2cc(C(N)=O)cc(OCCCN3CCN(C(=O)C(C)(C)CCN)CC3)c2n1C/C=C/Cn1c(NC(=O)c2cc(C)nn2CC)nc2cc(C(N)=O)cc(SC)c21 [Example 3] | 0.1 to 1 µM | < 0.1 µM | 0.1 to 1 µM | 0.1 to 1 µM | 0.1 to 1 µM | > 50 µM | > 40 µM | – |

Continued, in another order:

| EC50 (STING signaling pathway [1]; [6]) | EC50 (STING signaling pathway [2]; [7]) | EC50 (STING signaling pathway [4]; [8]) | EC50 (STING signaling pathway [4]; [9]) | EC50 (STING signaling pathway [4]; [10]) | SMILES | CC50 at 18 h [3] | CC50 at 6 h [5] | further results |
| --- | --- | --- | --- | --- | --- | --- | --- | --- |
| > 1 µM | – | – | – | – | CCc1nc(C)sc1C(=O)Nc1nc2cc(C(N)=O)cc(OCCCN3CCOCC3)c2n1C/C=C/Cn1c(NC(=O)c2c(F)c(C)nn2CC)nc2cc(C(N)=O)cc(SCCCN)c21 [Example 17] | – | – | – |
| 0.1 to 1 µM | – | – | – | – | CCc1nc(C)sc1C(=O)Nc1nc2cc(C(N)=O)cc(OCCCN3CCN(C(=O)OCCCC4CCNCC4)CC3)c2n1C/C=C/Cn1c(NC(=O)c2c(F)c(C)nn2CC)nc2cc(C(N)=O)cc(SC)c21 [Example 15] | – | – | – |
| > 1 µM | – | – | – | – | CCc1nc(C)sc1C(=O)Nc1nc2cc(C(N)=O)cc(OCCCN3CCOCC3)c2n1C/C=C/Cn1c(NC(=O)c2c(F)c(C)nn2CC)nc2cc(C(N)=O)cc(SCCCNC(=O)OCCCC3CCNCC3)c21 [Example 18] | – | – | – |
| – | 0.1 to 1 µM | 0.1 to 1 µM | 0.1 to 1 µM | 0.1 to 1 µM | CCc1nc(C)sc1C(=O)Nc1nc2cc(C(N)=O)cc(OC)c2n1C/C=C/Cn1c(NC(=O)c2cc(C)nn2CC)nc2cc(C(N)=O)cc(OCCCN3CCNCC3)c21 [Example 20] | > 50 µM | > 50 µM | – |
| > 1 µM | – | – | – | – | CCc1nc(C)sc1C(=O)Nc1nc2cc(C(N)=O)cc(OCCCN3CCOCC3)c2n1C/C=C/Cn1c(NC(=O)c2c(F)c(C)nn2CC)nc2cc(C(N)=O)cc(OCCCN)c21 [Example 19] | – | – | – |
| – | < 0.1 µM | 0.1 to 1 µM | 0.1 to 1 µM | < 0.1 µM | CCc1nc(C)sc1C(=O)Nc1nc2cc(C(N)=O)cc(OCCCN3CCNCC3)c2n1C/C=C/Cn1c(NC(=O)c2cc(C)nn2CC)nc2cc(C(N)=O)cc(OC)c21 [Example 21] | – | – | – |
